# Test results from PubChem BioAssay AID2060489 (Molecular Pharmacology Branch, DTP, NCI, 2025).
# Test system: 922993-354-T-J3-PDC complex spheroids, viability
# Assay: Anticancer human tumor 922993-354-T-J3-PDC patient-derived endometrial carcinoma cell line growth inhibition [GQUAD]
# Details: for IC50: curve of first compound; for viability, T/C: stronger effect = lower value
# In short: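 Viability of tumor cells grown as complex spheroids with endothelial and stromal cells, exposed to drug combinations. Top concentration at or near clinical Cmax (else 10 microM), diluted in half-log increments.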
# [1] = second compound 0.0316 µM, first compound 0.0316 µM
# [2] = second compound 0.0316 µM, first compound 0.316 µM
# [3] = second compound 0.1 µM, first compound 0.0316 µM
# [4] = second compound 0.1 µM, first compound 0.316 µM
# [5] = second compound 0.316 µM, first compound 0.0316 µM
# [6] = second compound 0.316 µM, first compound 0.316 µM
# [7] = second compound 1 µM, first compound 0.0316 µM
# [8] = second compound 1 µM, first compound 0.316 µM
# [9] = second compound 3.16 µM, first compound 0.0316 µM
# [10] = second compound 3.16 µM, first compound 0.316 µM
# [11] = second compound 10 µM, first compound 0.0316 µM
# [12] = second compound 10 µM, first compound 0.316 µM
# [13] = second compound 0.0316 µM, first compound 0.1 µM
# [14] = second compound 0.0316 µM, first compound 1 µM
# [15] = second compound 0.0316 µM, first compound 3.16 µM
# [16] = second compound 0.0316 µM, first compound 10 µM
# [17] = second compound 0.1 µM, first compound 0.1 µM
# [18] = second compound 0.1 µM, first compound 1 µM
# [19] = second compound 0.1 µM, first compound 3.16 µM
# [20] = second compound 0.1 µM, first compound 10 µM
# [21] = second compound 0.316 µM, first compound 0.1 µM
# [22] = second compound 0.316 µM, first compound 1 µM
# [23] = second compound 0.316 µM, first compound 3.16 µM
# [24] = second compound 0.316 µM, first compound 10 µM
# [25] = second compound 1 µM, first compound 0.1 µM
# [26] = second compound 1 µM, first compound 1 µM
# [27] = second compound 1 µM, first compound 3.16 µM
# [28] = second compound 1 µM, first compound 10 µM
# [29] = second compound 3.16 µM, first compound 0.1 µM
# [30] = second compound 3.16 µM, first compound 1 µM
# [31] = second compound 3.16 µM, first compound 3.16 µM
# [32] = second compound 3.16 µM, first compound 10 µM
# [33] = second compound 10 µM, first compound 0.1 µM
# [34] = second compound 10 µM, first compound 1 µM
# [35] = second compound 10 µM, first compound 3.16 µM
# [36] = second compound 10 µM, first compound 10 µM
# 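Further: spheroids exposed to compounds for seven days.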
# 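Wherever viability, T/C is given: 100% = DMSO vehicle control viability.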
compound,measurement,setting,value
Cc1[nH]c2ccccc2c1CCNCc1ccc(/C=C/C(=O)NO)cc1 + Cc1cnc(CNC(=O)c2c(=O)c3ccc(N4CCCN(C)CC4)nc3n3c2sc2ccccc23)cn1,IC50,second compound 0.0316 µM,> 316 nM
same,IC50,second compound 0.1 µM,109 nM
same,IC50,second compound 0.316 µM,< 0.999 nM
same,IC50,second compound 1 µM,< 0.999 nM
same,IC50,second compound 3.16 µM,< 0.999 nM
same,IC50,second compound 10 µM,< 0.999 nM
same,"viability, T/C","second compound 0.0316 µM, first compound 0.000999 µM",81.9%
same,"viability, T/C","second compound 0.0316 µM, first compound 0.00316 µM",86.5%
same,"viability, T/C","second compound 0.0316 µM, first compound 0.00999 µM",108%
same,"viability, T/C",[1],72.6%
same,"viability, T/C","second compound 0.0316 µM, first compound 0.0999 µM",73.5%
same,"viability, T/C",[2],54.3%
same,"viability, T/C","second compound 0.1 µM, first compound 0.000999 µM",55.7%
same,"viability, T/C","second compound 0.1 µM, first compound 0.00316 µM",64.3%
same,"viability, T/C","second compound 0.1 µM, first compound 0.00999 µM",57.6%
same,"viability, T/C",[3],55.8%
same,"viability, T/C","second compound 0.1 µM, first compound 0.0999 µM",47%
same,"viability, T/C",[4],45.4%
same,"viability, T/C","second compound 0.316 µM, first compound 0.000999 µM",54.2%
same,"viability, T/C","second compound 0.316 µM, first compound 0.00316 µM",33.7%
same,"viability, T/C","second compound 0.316 µM, first compound 0.00999 µM",44.2%
same,"viability, T/C",[5],34.7%
same,"viability, T/C","second compound 0.316 µM, first compound 0.0999 µM",40.9%
same,"viability, T/C",[6],30.8%
same,"viability, T/C","second compound 1 µM, first compound 0.000999 µM",42.6%
same,"viability, T/C","second compound 1 µM, first compound 0.00316 µM",46.7%
same,"viability, T/C","second compound 1 µM, first compound 0.00999 µM",38.9%
same,"viability, T/C",[7],34.9%
same,"viability, T/C","second compound 1 µM, first compound 0.0999 µM",33.9%
same,"viability, T/C",[8],31.2%
same,"viability, T/C","second compound 3.16 µM, first compound 0.000999 µM",40.9%
same,"viability, T/C","second compound 3.16 µM, first compound 0.00316 µM",48.6%
same,"viability, T/C","second compound 3.16 µM, first compound 0.00999 µM",41.6%
same,"viability, T/C",[9],41.7%
same,"viability, T/C","second compound 3.16 µM, first compound 0.0999 µM",29.9%
same,"viability, T/C",[10],24.6%
same,"viability, T/C","second compound 10 µM, first compound 0.000999 µM",36%
same,"viability, T/C","second compound 10 µM, first compound 0.00316 µM",40.3%
same,"viability, T/C","second compound 10 µM, first compound 0.00999 µM",44.8%
same,"viability, T/C",[11],30%
same,"viability, T/C","second compound 10 µM, first compound 0.0999 µM",38.9%
same,"viability, T/C",[12],6.92%
O=C(c1cc(Cc2n[nH]c(=O)c3ccccc23)ccc1F)N1CCN(C(=O)C2CC2)CC1 + CN(C)c1ccc(Nc2c3ccc(NC(=O)CCN4CCCC4)cc3nc3cc(NC(=O)CCN4CCCC4)ccc23)cc1,IC50,second compound 0.0316 µM,> 10000 nM
same,IC50,second compound 0.1 µM,> 10000 nM
same,IC50,second compound 0.316 µM,> 10000 nM
same,IC50,second compound 1 µM,> 10000 nM
same,IC50,second compound 3.16 µM,> 10000 nM
same,IC50,second compound 10 µM,> 10000 nM
same,"viability, T/C",[1],103%
same,"viability, T/C",[13],105%
same,"viability, T/C",[2],94.2%
same,"viability, T/C",[14],86.5%
same,"viability, T/C",[15],89.8%
same,"viability, T/C",[16],106%
same,"viability, T/C",[3],115%
same,"viability, T/C",[17],81.9%
same,"viability, T/C",[4],91.9%
same,"viability, T/C",[18],86%
same,"viability, T/C",[19],94.9%
same,"viability, T/C",[20],106%
same,"viability, T/C",[5],89.5%
same,"viability, T/C",[21],84.3%
same,"viability, T/C",[6],115%
same,"viability, T/C",[22],87.3%
same,"viability, T/C",[23],91.2%
same,"viability, T/C",[24],78.5%
same,"viability, T/C",[7],83.7%
same,"viability, T/C",[25],86.5%
same,"viability, T/C",[8],87.8%
same,"viability, T/C",[26],74.7%
same,"viability, T/C",[27],97.5%
same,"viability, T/C",[28],107%
same,"viability, T/C",[9],84.2%
same,"viability, T/C",[29],105%
same,"viability, T/C",[10],110%
same,"viability, T/C",[30],75.5%
same,"viability, T/C",[31],120%
same,"viability, T/C",[32],93.7%
same,"viability, T/C",[11],110%
same,"viability, T/C",[33],128%
same,"viability, T/C",[12],109%
same,"viability, T/C",[34],99.4%
same,"viability, T/C",[35],133%
same,"viability, T/C",[36],132%
CC1COCCN1c1cc(C2(O)CC3CCC(C2)O3)c2cnn(-c3ccn[nH]3)c2n1 (stereo unspecified) + Cc1[nH]c2ccc(F)cc2c1-c1nc2c3cccnc3c3ncccc3c2[nH]1,IC50,second compound 0.0316 µM,332 nM
same,IC50,second compound 0.1 µM,519 nM
same,IC50,second compound 0.316 µM,655 nM
same,IC50,second compound 1 µM,355 nM
same,IC50,second compound 3.16 µM,622 nM
same,IC50,second compound 10 µM,435 nM
same,"viability, T/C",[1],87.8%
same,"viability, T/C",[13],67.6%
same,"viability, T/C",[2],50.8%
same,"viability, T/C",[14],37.5%
same,"viability, T/C",[15],19.9%
same,"viability, T/C",[16],15.1%
same,"viability, T/C",[3],85.7%
same,"viability, T/C",[17],84.5%
same,"viability, T/C",[4],62.2%
same,"viability, T/C",[18],33.3%
same,"viability, T/C",[19],21.2%
same,"viability, T/C",[20],18.5%
same,"viability, T/C",[5],85.4%
same,"viability, T/C",[21],94.3%
same,"viability, T/C",[6],69.9%
same,"viability, T/C",[22],37.2%
same,"viability, T/C",[23],22%
same,"viability, T/C",[24],13.3%
same,"viability, T/C",[7],84.4%
same,"viability, T/C",[25],96.7%
same,"viability, T/C",[8],52.9%
same,"viability, T/C",[26],30.7%
same,"viability, T/C",[27],24.4%
same,"viability, T/C",[28],17.7%
same,"viability, T/C",[9],86.4%
same,"viability, T/C",[29],70.5%
same,"viability, T/C",[10],68.6%
same,"viability, T/C",[30],37.1%
same,"viability, T/C",[31],27.4%
same,"viability, T/C",[32],19.6%
same,"viability, T/C",[11],89.2%
same,"viability, T/C",[33],77.5%
same,"viability, T/C",[12],53.3%
same,"viability, T/C",[34],37.6%
same,"viability, T/C",[35],23.6%
same,"viability, T/C",[36],18.2%
